Target: T1, human NK1 receptor (Homo sapiens, UniProt P25103)
T1 construct: expressed in transfected cells; host or cells: 293T cells (RIKEN), transient transfection with pcDNA3.1(-) plasmid
Assay: Inhibitory effect on human NK1 receptor (substance P-induced increase in intracellular calcium concentration)
Assay type: cell-based
Settings: HEK-293T; substance P 0.1 μM; compound 1 μM; human NK1 receptor-expressing 293T cells; vehicle = 100%; read-out: SPRR (%) (Substance P-Response Remaining, intracellular calcium concentration)
Procedure: Inhibitory Effect on Human NK1 Receptor
(1) Preparation of Human NK1 Receptor-Expressing Cells
Human NK1 receptor-expressing cells were prepared by the same methods as those described in 2-3 and 2-4 of Test Example 1.
(2) Study on Inhibitory Effect on Increase in Intracellular Calcium Concentration
The human NK1 receptor-expressing cells were washed with 300 μL/well of a washing solution (20 mM HEPES/Hanks Balanced Salt Solution (HBSS) pH7.3). A fluorescent calcium indicator (Fluo-4 Direct Calcium Assay Kit, Life Technologies, containing 0.42 mM probenecid and 0.1% bovine serum albumin, prepared according to the protocol of the product) was added to the wells at 150 μL/well, and the plate was incubated at 37° C. for 30 minutes in an incubator. Then, DMSO solutions of a test compound, which were prepared at an 80-time higher concentration using 100% dimethyl sulfoxide (DMSO), were added to the wells at 2.5 μL/well (final concentrations of 0.1, 1 and 10 μM), and the solutions were mixed. Then, the plate was further incubated at 37° C. for 30 minutes in an incubator. After 30 minutes, the intracellular calcium concentrations were measured immediately.
The intracellular calcium concentrations were each measured as a fluorescent signal using FDSS® 7000 (Hamamatsu Photonics). A substance P (Peptide Institute, Inc.) solution which was prepared at 0.4 μM or 4 μM using an assay buffer (20 mM HEPES/Hanks Balanced Salt Solution (HBSS) pH 7.3 containing 0.1% bovine serum albumin) was added automatically to each well at 50 μL/well (final concentration of 0.1 or 1 μM) 10 seconds after starting reading, and the fluorescent signal was measured up to 120 seconds.
The intracellular calcium concentration (%) of the cells to which a test compound was added was calculated by the equation below, where the fluorescent signal of the group to which the vehicle (DMSO) was added was regarded as 100%, and the fluorescent signal before the addition of substance P was regarded as 0%. Intracellular calcium concentration (%)=(Fluorescent signal of test compound addition group)/(Fluorescent signal of vehicle addition group)×100
The intracellular calcium concentration (%) calculated was regarded as the remaining agonist activity of substance P (Substance P-Response Remaining: SPRR). In the table, Ex. No. means the Example number. SPRR (%) means the value obtained when the concentration of substance P was 0.1 μM and the concentration of the compound was 1 μM.

T1 sequence (P25103 whole entry): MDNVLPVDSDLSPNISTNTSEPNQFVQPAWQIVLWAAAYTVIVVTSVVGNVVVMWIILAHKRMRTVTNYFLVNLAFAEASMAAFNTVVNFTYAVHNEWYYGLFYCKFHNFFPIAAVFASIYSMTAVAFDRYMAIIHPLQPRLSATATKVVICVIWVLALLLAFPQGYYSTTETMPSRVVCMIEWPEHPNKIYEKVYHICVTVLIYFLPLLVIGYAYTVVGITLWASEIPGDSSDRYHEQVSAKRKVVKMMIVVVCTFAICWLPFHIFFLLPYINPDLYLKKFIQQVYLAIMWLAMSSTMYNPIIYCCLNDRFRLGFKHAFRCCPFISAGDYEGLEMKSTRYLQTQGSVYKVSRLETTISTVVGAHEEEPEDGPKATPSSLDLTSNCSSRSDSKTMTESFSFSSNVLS

Row | remaining activity at 1 µM | Structure (SMILES)
1 | 2.1% | Cc1cc(F)ccc1[C@H]1CN(C[C@H]2CC[C@@H](CC(=O)O)CC2)CCN1C(=O)N(C)[C@H](C)c1cc(C(F)(F)F)cc(C(F)(F)F)c1 [Example 4, cis-{4-[(S)-4-{[(R)-1-(3,5-Bistrifluoromethylphenyl)ethyl]methylcarbamoyl}-3-(4-fluoro-2-methylphenyl)piperazin-1-ylmethyl]cyclohexyl}acetic acid]
2 | 8.9% | Cc1cc(F)ccc1[C@H]1CN(C[C@H]2CC[C@H](CC(=O)O)CC2)CCN1C(=O)N(C)[C@H](C)c1cc(C(F)(F)F)cc(C(F)(F)F)c1 [Example 5, trans-{4-[(S)-4-{[(R)-1-(3,5-Bistrifluoromethylphenyl)ethyl]methylcarbamoyl}-3-(4-fluoro-2-methylphenyl)piperazin-1-ylmethyl]cyclohexyl}acetic acid]
